Results from patent US8029770B2 (Rutgers, The State University, priority 2003, dated 2011).
Entries after “also recorded” stand apart in the source; their conditions may differ. Like-named read-outs stand apart in the source and are kept apart here. Marks after values point to notes of the source that are not given here.

Assays:
[1] = test system: apoptotic sunburn cells in the epidermis of SKH-1 mice; assay: UVB-induced apoptotic sunburn cells in the epidermis of SKH-1 mice after topical application; type: in vivo, mouse
Protocol: Chemicals and Animals. […] Female SKH-1 hairless mice (6 to 7 weeks old) were purchased from the Charles River Breeding Laboratories, and the animals were kept in an animal facility for at least one week before use at 7 to 8 weeks of age. Mice were given water and PURINA® Laboratory CHOW® 5001 diet from Ralston-Purina (St. […] For the analysis conducted herein, 5 mice were used per group. Treatment of Mice with UVB. […] The radiation was further calibrated with a model IL-1700 research radiometer/photometer (International Light, Newburyport, Mass.). Measurement of apoptotic sunburn cells. Identification of apoptoic sunburn cells was based morphologically on cell shrinkage and nuclear condensation due to fragmentation of the cells. […] Six hours after UVB, the animals were sacrificed and apoptotic sunburn cells in the epidermis were determined morphologically. […] Six hours after UVB, the animals were sacrificed and apoptotic sunburn cells in the epidermis were determined morphologically. […] Acetone Formulation. […] Six hours after UVB, the animals were sacrificed and apoptotic sunburn cells in the epidermis were determined morphologically. […] […] Formulations. […] Six hours after UVB the animals were sacrificed and apoptotic sunburn cells in the epidermis were determined morphologically. […] Six hours after UVB the animals were sacrificed and apoptotic sunburn cells in the epidermis were determined morphologically.

[2] = test system: apoptotic sunburn cells in the epidermis of C57/BL/6J p53(+/+) mice; assay: UVB-induced apoptotic sunburn cells in C57/BL/6J p53(+/+) mice, topical caffeine; type: in vivo, mouse
Protocol: (§1) The time course for apoptosis was determined by utilizing morphologically distinct sunburn cells as the marker for apoptosis. […] Accordingly, studies with a C57/BL/6J mouse were performed with a 60 mJ/cm^2 dose of UVB.
(§2) Measurement of apoptotic sunburn cells. Identification of apoptoic sunburn cells was based morphologically on cell shrinkage and nuclear condensation due to fragmentation of the cells. […] The percentage of apoptotic sunburn cells in the epidermis (basal plus suprabasal layers) was calculated from the number of these cells per 100 cells counted from the entire 20 mm length of epidermis for each skin section.

[3] = test system: apoptotic sunburn cells in the epidermis of C57/BL/6J p53(−/−) mice; assay: UVB-induced apoptotic sunburn cells in C57/BL/6J p53(−/−) mice, topical caffeine; type: in vivo, mouse
Protocol: as §1, §2

[4] = Weight of mouse during topical treatment of UVB-pretreated high risk SKH-1 mice; type: in vivo
Protocol: Female SKH-1 mice were treated with 30 mJ/cm^2 of UVB twice a week for 20 weeks.

[5] = test system: UVB-induced skin lesions in SKH-1 mice; assay: Prevention of UVB-induced skin (sunburn) lesions, sunscreen effect; type: in vivo, mouse; conditions: 4.8% caffeine or 8.0% caffeine sodium benzoate (24 μmoles) in 100 mg DERMABASE 30 minutes before UVB 180 mJ/cm^2 on two consecutive days (FIG. 2)
Protocol: The areas (mm^2) and the intensity of red color in UVB-induced skin lesion were estimated semi-quantitatively 5 days after first UVB treatment. The lesion index were calculated as the lesion area multiplied by the arbitrary intensity: 0, no lesion; 1 barely detectable red lesion; 2 moderate red lesion, and 3, bright red lesion.
Outdoor occupational human exposure to UVB or a sunbathing exposure in the summer has been reported to range from 50-100 mJ/cm^2 per day (Larko, et al. (1983) Clin. Exp. Dermatol. 8:279-285; Diffey (1991) Phys. Med. Biol. 36:299-328).

cyclin B1 = assay: Epidermal cyclin B1 in UVB-treated mice, western blot and immunohistochemistry; type: in vivo, mouse
phospho-Chk2 (Ser387) = assay: Epidermal phospho-Chk2 (Ser387) in UVB-treated mice, western blot; type: in vivo, mouse; conditions: topical immediately after UVB 30 mJ/cm2; 6 hours
[6] = test system: UVB-induced skin tumors in high risk SKH-1 mice

Question: What does the source list for Cn1c(=O)c2c(ncn2C)n(C)c1=O [Caffeine, caffeine]?
Answer: Percent Sunburn Cells, UVB ([1]; 6.2 μmole (each) in 100 μL acetone:water (9:1) immediately after UVB 30 mJ/cm^2 and at 30 and 120 min, 6 h, mean ± S.E.): 0.64 ± 0.15%; Percent Apoptotic Sunburn Cells ([1]; 6.2 μmole in 100 μL acetone right after UVB 30 mJ/cm^2 and at 30 and 120 min, 6 h after UVB, mean ± S.E.): 0.506 ± 0.013^a %; Percent Sunburn Cells, UVB ([1]; 100 mg formulation (2.4% caffeine or 4.0% caffeine sodium benzoate, 12.4 μmole, in DERMABASE; or commercial product) immediately after UVB 30 mJ/cm^2, 6 h): 1.96 ± 0.20^a %; Percent Sunburn Cells, UVB ([1]; 0.6% Caffeine in 100 mg DERMABASE immediately after UVB 30 mJ/cm^2, 6 h): 0.40 ± 0.18^a %; Percent Sunburn Cells, UVB ([1]; 1.2% Caffeine in 100 mg DERMABASE immediately after UVB 30 mJ/cm^2, 6 h): 0.58 ± 0.12^a %; Percent Sunburn Cells, UVB ([1]; 2.4% Caffeine in 100 mg DERMABASE immediately after UVB 30 mJ/cm^2, 6 h): 0.58 ± 0.14^a %; Percent Sunburn Cells, UVB ([1]; 3.6% Caffeine in 100 mg DERMABASE immediately after UVB 30 mJ/cm^2, 6 h): 0.82 ± 0.10^a %; Percent Sunburn Cells, UVB ([1]; 4.8% Caffeine in 100 mg DERMABASE immediately after UVB 30 mJ/cm^2, 6 h): 0.96 ± 0.13^a %; enhancement of UVB-induced apoptosis in the epidermis, applied in DERMABASE ([1]; DERMABASE vehicle, equimolar amounts (Table 4)): more effective at enhancing UVB-induced apoptosis when applied to the skin in DERMABASE™ than when applied to the skin in acetone; Percent Apoptotic Sunburn Cells ([1]; Exp-1, 6.2 μmole in acetone:water (9:1) x3 after UVB 30 mJ/cm^2, 6 h): 0.51 ± 0.01%; Percent Apoptotic Sunburn Cells ([1]; Exp-2, 6.2 μmole in acetone:water (9:1) x3 after UVB 30 mJ/cm^2, 6 h): 0.48 ± 0.04%; % Induction ([1]; Table 1, vs acetone group, 6.2 μmole x3 after UVB 30 mJ/cm^2, 6 h): 148%; % Induction ([1]; Table 2, vs acetone, 6.2 μmole in acetone:water (9:1)): 205%; % Induction ([1]; Table 3 Exp-1, 6.2 μmole): 155%; % Induction ([1]; Table 3 Exp-2, 6.2 μmole): 129%; % Induction ([1]; Table 4, 0.6% Caffeine in DERMABASE): 100%; % Induction ([1]; Table 4, 1.2% Caffeine in DERMABASE): 190%; % Induction ([1]; Table 4, 2.4% Caffeine in DERMABASE): 190%; % Induction ([1]; Table 4, 3.6% Caffeine in DERMABASE): 270%; % Induction ([1]; Table 5, vs DERMABASE, 100 mg formulation after UVB): 284%; enhancement of formation of UVB-induced apoptotic sunburn cells vs UVB plus acetone ([2]; female p53(+/+), 1.2 mg in 100 μL acetone immediately, 0.5 and 2 h after UVB 60 mJ/cm^2, 6 hours after UVB): 127%; effect on apoptosis in non-UVB-treated mice ([2]; female p53(+/+), no UVB): no effect; effect on apoptosis in non-UVB-treated epidermis ([2]; male p53(+/+), no UVB): no effect; enhancement of UVB-induced increase in apoptotic sunburn cells ([3]; female p53(−/−), UVB 60 mJ/cm^2, 6 hours after UVB): 563%; effect on apoptosis in non-UVB-treated epidermis ([3]; male p53(−/−), no UVB): no effect; Weight of mouse ([4]; week 0, 1.2% CF in DERMABASE): 30.3 ± 0.5 g; Weight of mouse ([4]; week 0, 3.6% CF in DERMABASE): 30.5 ± 0.6 g; Weight of mouse ([4]; week 5, 1.2% CF in DERMABASE): 29.6 ± 0.5 g; Weight of mouse ([4]; week 5, 3.6% CF in DERMABASE): 30.0 ± 0.5 g; Weight of mouse ([4]; week 7, 1.2% CF in DERMABASE): 29.5 ± 0.5 g; Weight of mouse ([4]; week 7, 3.6% CF in DERMABASE): 29.6 ± 0.5 g; Weight of mouse ([4]; week 9, 1.2% CF in DERMABASE): 30.0 ± 0.4 g; Weight of mouse ([4]; week 9, 3.6% CF in DERMABASE): 29.8 ± 0.5 g; Weight of mouse ([4]; week 11, 1.2% CF in DERMABASE): 30.0 ± 0.5 g; Weight of mouse ([4]; week 11, 3.6% CF in DERMABASE): 30.1 ± 0.5 g; formation of UVB-induced sunburn (skin) lesions [5]: inhibited the formation of sunburn lesions; also recorded: inhibited UVB-induced sunburn lesions; percent of cyclin B1 positive cells in the epidermis (cyclin B1; UVB-treated mice, frozen sections, immunohistochemical): substantially enhanced; effect on cyclin B1 positive cells in the absence of UVB (cyclin B1; no UVB): little or no effect; level of epidermal cyclin B1 vs UVB alone (cyclin B1; topical immediately after UVB 30 mJ/cm2, western blot): increased substantially; UVB-induced increase in the level of phospho-Chk2 (Ser387) (phospho-Chk2 (Ser387)): inhibited; No. of large tumors (diameter > 5 mm) ([6]; week 0, 1.2% CF in DERMABASE): 0; Tumor volume per mouse (all mice) (mm^3) ([6]; week 0, 1.2% CF in DERMABASE): 0 mm^3; Tumor volume per tumor (mm^3) ([6]; week 0, 1.2% CF in DERMABASE): 0 mm^3; Tumors per mouse ([6]; week 0, 1.2% CF in DERMABASE): 0; No. of large tumors (diameter > 5 mm) ([6]; week 0, 3.6% CF in DERMABASE): 0; Tumor volume per mouse (all mice) (mm^3) ([6]; week 0, 3.6% CF in DERMABASE): 0 mm^3; Tumor volume per tumor (mm^3) ([6]; week 0, 3.6% CF in DERMABASE): 0 mm^3; Tumors per mouse ([6]; week 0, 3.6% CF in DERMABASE): 0; No. of large tumors (diameter > 5 mm) ([6]; week 5, 1.2% CF in DERMABASE): 0; Tumor volume per mouse (all mice) (mm^3) ([6]; week 5, 1.2% CF in DERMABASE): 0.1 ± 0.0 mm^3; Tumor volume per tumor (mm^3) ([6]; week 5, 1.2% CF in DERMABASE): 0.5 ± 0.0 mm^3; Tumors per mouse ([6]; week 5, 1.2% CF in DERMABASE): 0.1 ± 0.1; No. of large tumors (diameter > 5 mm) ([6]; week 5, 3.6% CF in DERMABASE): 0; Tumor volume per mouse (all mice) (mm^3) ([6]; week 5, 3.6% CF in DERMABASE): 0.1 ± 0.0 mm^3; Tumor volume per tumor (mm^3) ([6]; week 5, 3.6% CF in DERMABASE): 0.5 ± 0.0 mm^3; Tumors per mouse ([6]; week 5, 3.6% CF in DERMABASE): 0.2 ± 0.1; No. of large tumors (diameter > 5 mm) ([6]; week 7, 1.2% CF in DERMABASE): 0; Tumor volume per mouse (all mice) (mm^3) ([6]; week 7, 1.2% CF in DERMABASE): 0.4 ± 0.2 mm^3; Tumor volume per tumor (mm^3) ([6]; week 7, 1.2% CF in DERMABASE): 1.3 ± 0.5 mm^3; Tumors per mouse ([6]; week 7, 1.2% CF in DERMABASE): 0.4 ± 0.1; No. of large tumors (diameter > 5 mm) ([6]; week 7, 3.6% CF in DERMABASE): 0; Tumor volume per mouse (all mice) (mm^3) ([6]; week 7, 3.6% CF in DERMABASE): 0.3 ± 0.1 mm^3; Tumor volume per tumor (mm^3) ([6]; week 7, 3.6% CF in DERMABASE): 1.3 ± 0.7 mm^3; Tumors per mouse ([6]; week 7, 3.6% CF in DERMABASE): 0.2 ± 0.1; No. of large tumors (diameter > 5 mm) ([6]; week 9, 1.2% CF in DERMABASE): 0; Tumor volume per mouse (all mice) (mm^3) ([6]; week 9, 1.2% CF in DERMABASE): 2.0 ± 1.0 mm^3; Tumor volume per tumor (mm^3) ([6]; week 9, 1.2% CF in DERMABASE): 3.3 ± 1.5 mm^3; Tumors per mouse ([6]; week 9, 1.2% CF in DERMABASE): 0.6 ± 0.2; No. of large tumors (diameter > 5 mm) ([6]; week 9, 3.6% CF in DERMABASE): 0; Tumor volume per mouse (all mice) (mm^3) ([6]; week 9, 3.6% CF in DERMABASE): 0.8 ± 0.5 mm^3; Tumor volume per tumor (mm^3) ([6]; week 9, 3.6% CF in DERMABASE): 1.9 ± 1.1 mm^3; Tumors per mouse ([6]; week 9, 3.6% CF in DERMABASE): 0.4 ± 0.1; No. of large tumors (diameter > 5 mm) ([6]; week 11, 1.2% CF in DERMABASE): 0; Tumor volume per mouse (all mice) (mm^3) ([6]; week 11, 1.2% CF in DERMABASE): 3.7 ± 1.4 mm^3; Tumor volume per tumor (mm^3) ([6]; week 11, 1.2% CF in DERMABASE): 3.5 ± 1.0 mm^3; Tumors per mouse ([6]; week 11, 1.2% CF in DERMABASE): 1.1 ± 0.3; No. of large tumors (diameter > 5 mm) ([6]; week 11, 3.6% CF in DERMABASE): 0; Tumor volume per mouse (all mice) (mm^3) ([6]; week 11, 3.6% CF in DERMABASE): 1.6 ± 0.6 mm^3; Tumor volume per tumor (mm^3) ([6]; week 11, 3.6% CF in DERMABASE): 1.3 ± 0.4 mm^3; Tumors per mouse ([6]; week 11, 3.6% CF in DERMABASE): 1.2 ± 0.3
